In patent publication US11939617B2, “Functionally modified polypeptides and radiobiosynthesis” (Ikaria Inc., priority 2016, dated 2024):

Tests used:
HSA = HSA (Homo sapiens, UniProt P02768); assay: chromatographic assay of HSA binding; settings: for Kd: chromatographic HSA binding assay (Hage)
Description: To assess albumin binding, any assay designed to measure albumin binding can be used. Chromatographic binding assays are especially useful, such as that described by Hage, D S, et al. J (Chromatogr B Biomed Sci Appl. 2000, 739:39-54). Alternatively or in conjunction, binding affinity to albumin can be determined by using surface plasmon resonance. In one method, a BIAcore 200 device (BIAcore Inc.; Piscataway, NJ) is used in combination with a procedure by Lacy, S E, et al. (MAbs, 2015. 7:605-19) as modified herein. Briefly, human and mouse albumin are captured on a CM5 chip using amine coupling at 5000 resonance units. The candidate polypeptides are injected at various concentrations (e.g., 0, 0.625, 1.25, 5, and 10 μM) at a controlled flow rate (e.g., 20 μl/min). The bound peptides are allowed to dissociate for a period of time (e.g., 5 min) before matrix regeneration using 10 mM glycine, pH 3. The signal from an injection passing over an uncoupled cell is subtracted from that of an immobilized cell to generate sensorgrams of the amount of polypeptide bound as a function of time. BIAcore kinetic evaluation software (version 3.1) can be used to determine KD from the association and dissociation rates using a one-to-one binding model. Alternatively or in conjunction, affinity to albumin can be determined using a direct assay, such as described by Nguyen, A, et al. (Protein Eng Des Sel. 2006, 19:291-7). In this method, albumin is immobilized onto high protein-binding capacity polystyrene 96 well plates at a predetermined concentration, such as 2 mg/ml, for a period of time (e.g., overnight) at 4° C. Non-specific binding sites are blocked with binding buffer, and radio-labelled candidate polypeptides are applied to the plates for a period of time, such as 30 minutes, at 25° C. Unbound candidate polypeptides are washed away, and bound candidate polypeptides detected using a radioactivity plate reader.
The two non-natural amino acids (nnAAs 1 and 2; FIG. 1) were synthesized from the corresponding NHS-esters by standard conjugation chemistry (FIG. 1). […]

[1] = tested on: amber nonsense codon in GFPUV-149UAG, PylRS mutant/tRNACUA^Pyl; assay: amber suppression in GFP by PylRS mutant in E. coli, fluorescence plate reader; format: cell-based; settings: medium with 1 mM nnAA versus control LB medium, best hit from the library
Description: Since many PylRS mutants have broad substrate specificity, we first screened only a small library of 22 previously evolved PylRS mutants for their ability to incorporate 1 and 2 into green fluorescence protein (GFP) in E coli. The screening was based on the suppression of an amber nonsense codon at a permissive site in a GFP-encoding gene. Briefly, a plasmid, pLei-GFPUV-N149UAG, which contains GFPUV-149UAG and a copy of a tRNACUA^Pyl, was co-transformed into E. coli GeneHogs strain with a plasmid containing a variant of PylRS mutant. Protein expression was carried out in control LB medium and in medium supplemented with 1 mM 1 or 2. After induction of GFP expression and cultivation (12 h), cells were collected, washed, and analyzed using a fluorescence plate reader.

[2] = daily subcutaneous injection, 70-100 mg, 1-2 mg/kg; cited from earlier work

HSA, sequence (P02768 25-609): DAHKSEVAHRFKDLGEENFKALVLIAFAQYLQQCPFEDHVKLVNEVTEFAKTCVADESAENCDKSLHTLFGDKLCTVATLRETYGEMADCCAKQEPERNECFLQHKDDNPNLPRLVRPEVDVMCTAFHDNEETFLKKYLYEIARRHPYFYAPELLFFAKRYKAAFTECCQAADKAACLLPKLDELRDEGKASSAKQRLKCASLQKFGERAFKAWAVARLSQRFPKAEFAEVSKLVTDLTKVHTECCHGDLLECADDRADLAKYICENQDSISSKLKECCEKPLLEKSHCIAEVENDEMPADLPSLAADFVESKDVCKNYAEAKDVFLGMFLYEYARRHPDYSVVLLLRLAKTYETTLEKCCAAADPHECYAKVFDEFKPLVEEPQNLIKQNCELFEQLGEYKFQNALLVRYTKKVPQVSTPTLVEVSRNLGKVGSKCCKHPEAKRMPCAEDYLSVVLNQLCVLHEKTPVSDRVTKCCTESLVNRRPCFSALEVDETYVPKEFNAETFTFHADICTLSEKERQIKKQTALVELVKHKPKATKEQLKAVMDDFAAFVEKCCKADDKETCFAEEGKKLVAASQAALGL

Molecule: N[C@@H](CCCCNC(=O)CCc1ccc(I)cc1)C(=O)O [nnAA 2, Nε-(3-(4-iodophenyl)propanoyl)lysine]
- Kd (HSA): 204 µM
- albumin binding (HSA; statement in words): binds albumin poorly
- full-length GFPUV production (fluorescence) [1]: significantly more full-length GFPUV proteins were produced

Molecule: anakinra: 17 kD therapeutic protein currently prescribed for the treatment of rheumatoid arthritis
- time of peak serum concentration after injection [2]: ~6 h

Molecule: N[C@@H](CCCCNC(=O)CCCc1ccc(I)cc1)C(=O)O [compound 1]
- Kd (HSA): 7 µM
